Test results: patent US12697349B2, “Compositions and methods for treating RAS-mutant cancers” (MEMORIAL SLOAN KETTERING CANCER CENTER, priority 2019, dated 2026)

Key:
[1] = tested on: human pancreatic cancer cell lines (KRAS mutant and wild-type KRAS); experiment: In vitro growth inhibition by auranofin or piperlongumine in a panel of pancreatic cancer cell lines; format: cell-based
Procedure: Relative proliferation was calculated by measuring viable cell numbers, and normalizing to the viable cell numbers of DMSO-treated cells, which were set to 1. Relative proliferation was then plotted as a function of auranofin concentration and fit to an exponential curve. L3.3, Colo357, and BXPC3 have wild-type KRAS, and rest of the cell lines harbor a KRAS mutation.
Cancer cells harboring different KRAS mutations (G12C, G12D, G12V) or wild-type allele were assayed. Relative proliferation was calculated by measuring viable cell numbers, and normalizing to the viable cell numbers of DMSO-treated cells, which were set to 1. Relative proliferation was then plotted as a function of auranofin concentration and fit to an exponential curve.
(§1) Proliferation assays. Competitive proliferation assays using shRNAs in TRMPV-Neo vector (with miR-30 or miR-E backbone) were performed as described previously (Huang et al., Genes Dev. 28(16): 1800-1814 (2014)). Assays for in vitro growth inhibition by auranofin or piperlongumine were performed by counting the viable cell numbers using CellTiter-Glo Luminescent Cell Viability Assay (Promega) after incubation of cells in the presence of increasing concentrations of auranofin or piperlongumine for 72 hr. Proliferation rates were calculated by dividing viable cell numbers at 72 hr by the viable cell numbers at 0 hr. Relative proliferation rates were calculated by normalizing to the proliferation rate of vehicle-treated cells.
Since the screening system discussed above and FIGS. 1A-3B was driven by mutant Kras, p53 loss and Myc overexpression, whether alterations in either gene could dictate sensitivity to TXNRD1 inhibition was investigated. Twelve pancreatic cancer cell lines were treated with increasing concentration of auranofin or DMSO. Among the cell lines used in this experiment L3.3, Colo357, and BXPC3 have wild-type KRAS. The cell lines PANC0327, MIAPaCa-2, PANC0213, ASPC1, 8898, CFPAC-1, L3.6pl, PANC1 and SU8686 harbored KRAS mutations.
To understand whether the observed difference between sensitivities of wild-type KRAS cells and KRAS mutant cells, was statistically significant, the IC50 data of the relative sensitivity of human PDAC cell lines to TXNRD1 inhibition by auranofin was compared. […] To understand the effect of KRAS mutations (G12C, G12D, G12V) on auranofin sensitivity, human pancreatic cancer cells harboring different KRAS mutations (G12C, G12D, G12V) or wild-type were treated with another TXNRD1 inhibitor piperlongumine.

mPDAC cells = experiment: In vitro growth inhibition by auranofin, CellTiter-Glo viable cell numbers; format: cell-based, murine; conditions: 72 hr, increasing doses, normalized to DMSO-treated cells
Procedure: Relative proliferation was calculated by measuring viable cell numbers, and normalizing to the viable cell numbers of DMSO-treated cells, which were set to 1. Relative proliferation was then plotted as a function of auranofin concentration and fit to an exponential curve.
as §1
Auranofin is an inhibitor of enzymatic activity of TXNRD1 (See Gromer et al., J Biol Chem 273(32): 20096-20101). Myricetin, manumycin A and protoporphyrin IX are also inhibitors of enzymatic activity of TXNRD1. mPDAC cells were treated with the TXNRD1 inhibitor auranofin or DMSO for 72 hr, and viability was measured. DMSO treatment served as a negative control causing a lack of growth inhibition. […]

MIAPaCa-2 (KRAS mutant) = experiment: In vivo drug treatment, human xenograft model (KRAS mutant); design: species or system mice; conditions: auranofin 10 mg/kg intraperitoneal, 2 weeks, versus vehicle
Procedure: MIAPaCa-2 (KRAS mutant) or Colo357 (KRAS wild-type) organoids were transplanted into the pancreases of recipient mice. The mice were treated with vehicle only or auranofin (n=5) for 2 weeks. Tumor weights were measured and plotted.
(§2) In vivo drug treatment experiments. For auranofin treatment trials, 16 mg auranofin was first solved in 4 mL ethanol, and then diluted with 12 mL PBS to a final concentration of 1 mg/ml. Mice were given daily auranofin (10 mg/kg) or a similar volume of vehicle by intraperitoneal injection. The sick animals were sacrificed and pancreatic tissues and tumors were used for further analysis.
(§3) Growth inhibitory effects of pharmacological TXNRD1 inhibition was also examined in additional murine PDAC models generated by transplanting KRas^G12D; p53^−/− pancreatic cancer organoid lines into the pancreas of recipient mice. Mice were treated either with vehicle only, acting as a negative control, or auranofin. […] Thus, TXNRD1 is required for the maintenance of KRAS-mutant tumors and dependency in vivo.

[2] = tested on: MIAPaCa-2 (KRAS^G12C) and PSN1 (KRAS^G12R) pancreatic cancer cell lines; experiment: Drug combination growth inhibition and synergy analysis (CompuSyn, Combination Index); format: cell-based, human; conditions: KRAS-mutant pancreatic cancer cells MIAPaCa-2 and PSN1
Source text: Data presented as mean of three independent experiments (n=3). […] Each CI score represents data from at least three independent experiments.
CompuSyn software (Version 1.0) (http://www.combosyn.com), which is based on the Median-Effect Principle and the Combination Index-Isobologram Theorem was used to analyze drug synergism. Combination index (CI) values CI>1 indicates antagonism; CI=0.75-1.25 indicates additive effects; and <1 indicates synergism. Each GI (Growth inhibition) or CI score represents data from at least three independent experiments.

[3] = tested on: KRas^G12D; p53^-/- pancreatic cancer organoid tumors; experiment: In vivo drug treatment, KRas^G12D; p53^-/- pancreatic cancer organoids transplanted into the pancreas; design: species or system mice; conditions: 10 mg/kg, one per day, 5 days per week, intraperitoneal, 1 week, versus vehicle
Procedure: KRas^G12D; p53^−/− organoids were transplanted in recipient mice, and the mice were treated with vehicle only or auranofin (n=3-4) for 1 week. Tumor weights were measured and plotted.
as §2, §3

| Compound | sensitivity to piperlongumine, KRAS mutant versus wild-type KRAS cells ([1]; cells with KRAS G12C, G12D, G12V or wild-type, 72 hours) | correlation of anti-proliferative response (IC50) with KRAS mutational status ([1]; human PDAC cell lines, n=12) | correlation of response (IC50) with p53 mutational status or MYC mRNA expression ([1]; human pancreatic cancer cell lines, n=9) | sensitivity to auranofin, KRAS mutant versus wild-type KRAS cells ([1]; twelve pancreatic cancer cell lines, 72 hours, increasing concentration) | growth inhibition of mPDAC cells (relative proliferation) (mPDAC cells) | tumor growth inhibition (tumor weights) (MIAPaCa-2 (KRAS mutant)) | antiproliferative effect [2] | tumor growth (tumor weights) [3] |
| --- | --- | --- | --- | --- | --- | --- | --- | --- |
| COc1cc(/C=C/C(=O)N2CCC=CC2=O)cc(OC)c1OC [piperlongumine] | KRAS mutant cells were more sensitive to piperlongumine than the wild-type KRAS cells |  |  |  |  |  |  |  |
| CC(=O)OC[C@H]1O[C@@H]([S-])[C@H](OC(C)=O)[C@@H](OC(C)=O)[C@@H]1OC(C)=O.CCP(CC)CC.[Au+] [auranofin] |  | significant correlation | no significant correlation | KRAS mutant cells were generally more sensitive to auranofin than the wild-type KRAS cells | inhibited growth of mPDAC cells at submicromolar concentration | growth inhibitory effects of pharmacological TXNRD1 inhibition was found | antiproliferative effects | triggered a delay in Kras-mutant tumor growth |
